Experimental data published in US20220347256A1, “COMPOSITION FOR PROMOTING HAIR GROWTH, AND ALLEVIATING AND TREATING HAIR LOSS INCLUDING SUBSTANCE P” (Biosolution Co., Ltd., priority 2019, published 2022).
Where no end group is shown, it is not given here.

Legend:
[1] = tested on: C3H/HeN mice; experiment: Maintenance of skin in growth phase in C3H mice with dexamethasone-induced regression phase (black skin area); type: in vivo
Experimental: More specifically, ketamine (Yuhan Co, Ltd, Korea) and rompun (Bayer Korea, Korea) were mixed to a final concentration of 24.2 mg/mL and 1.8 mg/mL, respectively, and then six-week-old female C3H/HeN mice (Orient Bio, Korea) were anesthetized with 80 μL of the anesthetic solution. After anesthesia, the hair on the back was removed using a clipper, and the remaining hair was completely removed using a hair removal cream. Then, twelve mice with clean skin without wounds or remaining hair at the hair removal site were selected. Three mice were placed in each group so that mice with similar hair cycle were placed in each group, and thereafter the experiment was carried out. The phosphate buffered saline or the composition including the substance P at 50% concentration was intradermally injected in an amount of 50 μL each for a total of 200 μL at four sites on the back of the mice, at intervals of 3 to 4 days for 7 days from 6 days after the hair removal using an insulin syringe. […] One-way ANOVA was carried out to examine the difference between the entire groups, and the difference between individual means was analyzed using Tukey's test. […] This statistic was analyzed based on Prism software version 5. […]

[2] = tested on: C3H/HeN mice; experiment: H&E histology, thickness and shape of skin in C3H mice with dexamethasone-induced regression phase; type: in vivo; settings: in combination with dexamethasone
Experimental: More specifically, after the procedure of Example 7, the skin tissue of the mice was collected in the direction of the hair follicles and fixed in a fixing solution (4% formaldehyde, Sigma, USA) for 24 hours. […] Thereafter, an infiltration process was carried out to fill the penetrant into the tissue, followed by an embedding process to make a paraffin block. For hematoxylin (Sigma, USA) and eosin (Sigma, USA) staining, the paraffin block was cut into 8 μm and attached to slides (microscope slides, Marienfeld, Germany) coated with 2% 3-aminosilane, followed by drying in a 37° C. slide warmer for 12 hours. Thereafter, the slides were immersed in xylene four times for 7 minutes each through a deparaffinization process, and subjected to hydration for staining, and then washed with water. […] One-way ANOVA was carried out to examine the difference between the entire groups, and the difference between individual means was analyzed using Tukey's test. […] This statistic was analyzed based on Prism software version 5.
Additionally, the thickness of the dermis and the subcutaneous layers was confirmed by the Image J program. Skin thickness was measured by dividing the skin into the dermal layer (D), subcutaneous layer (SC), and whole layer (W), and 30 different areas were measured for each group and the results are shown in the graph of FIG. 13.

[3] = tested on: C3H/HeN mice; experiment: Number of hair follicles in skin of C3H mice with dexamethasone-induced regression phase; type: in vivo; settings: in combination with dexamethasone
Experimental: More specifically, after the procedure of Example 7, the skin tissue of the mice was collected in the direction vertical to the hair follicles and fixed in a fixing solution (4% formaldehyde, Sigma, USA) for 24 hours. The hematoxylin and eosin staining was carried out in the same manner as in Example 8.
Additionally, the number of hair follicles in 1 mm of skin was measured for each group by the Image J program. The number of hair follicles were measured in 10 tissues per group by dividing the skin into D, SC, and W layers, and the results are shown in the graph of FIG. 15.

[4] = tested on: dermal papilla cells; experiment: MTT assay of dermal papilla cell proliferation; type: cell-based; settings: 24 hours, concentration groups 30% and 50%
Experimental: The effect of substance P on dermal papilla cell proliferation was analyzed by MTT assay.
More specifically, 1,000 μL of 0.5×10^5 CFU/mL dermal papilla cell suspension was added to a 12-well culture plate and incubated for 48 hours. The medium (alpha-Minimum Essential Medium, alpha-MEM+10% FBS) was removed, and then 900 μL of a fresh medium (alpha-Minimum Essential Medium, alpha-MEM +5% FBS) was dispensed into each well, and then 100 μL of the composition including substance P diluted with phosphate buffered saline (PBS) was inoculated at concentrations of 30% and 50% (the substance P was contained at a concentration of 6 mg/mL and 10 mg/mL in the composition with concentrations of 30% and 50%, respectively). Additionally, substance P (30% and 50%) at the same concentrations as the composition including substance P was respectively mixed with phosphate buffered saline and treated.
Meanwhile, 100 μL of phosphate buffered saline was used as a negative control group. After inoculation, cells were incubated at 37° C. for 24 hours, and then the medium was removed. Then, the cells were washed with phosphate buffered saline three times. […] Finally, the cells were washed with phosphate buffered saline and stirred in 150 μL of isopropyl alcohol solution for 3 hours, and absorbance at 570 nm was measured.

[5] = tested on: germinal matrix cells; experiment: MTT assay of germinal matrix cell proliferation; type: cell-based; settings: 24 hours, concentration groups 30% and 50%
Experimental: The effect of substance P on germinal matrix cell proliferation was analyzed by MTT assay.
More specifically, 1,000 μL of 0.5×10^5 CFU/mL germinal matrix cell suspension was added to a 12-well culture plate and incubated for 48 hours. The medium (alpha-Minimum Essential Medium, alpha-MEM+10% FBS+10 ng/ml bFGF) was removed, and then 900 μL of a fresh medium (alpha-Minimum Essential Medium, alpha-MEM+5% FBS+5 ng/ml bFGF) was dispensed into each well, and then 100 μL of the composition including substance P diluted with phosphate buffered saline (PBS) was inoculated at concentrations of 30% and 50%. Additionally, substance P (30% and 50%) at the same concentration as the composition including substance P was respectively mixed with phosphate buffered saline and treated. Meanwhile, 100 μL of phosphate buffered saline was used as a negative control group. After inoculation, cells were incubated at 37° C. for 24 hours, and then the medium was removed. Then, the cells were washed with the phosphate buffered saline three times. Subsequently, 900 μL of the medium was mixed with 100 μL of the MTT solution (0.5 mg/mL), and the mixed solution was treated to each well and allowed to react at 37° C. for 3 hours. Finally, the cells were washed with the phosphate buffered saline and stirred in 150 μL of isopropyl alcohol solution for 3 hours, and absorbance at 570 nm was measured.

Row | Compound | inhibition of the induction of the regression phase by dexamethasone ([1]; from black skin area) [%] | black-skinned back relative to the total skin ([1]; in combination with dexamethasone, 17 days after hair removal, Image J) [%] | inhibition of the regression phase of the subcutaneous layer (SC) compared to phosphate buffered saline [2] [%] | number of hair follicles maintained in the dermis compared to phosphate buffered saline [3] | number of hair follicles maintained in the subcutaneous compared to phosphate buffered saline [3] | number of hair follicles maintained in the whole skin compared to phosphate buffered saline [3] | cell proliferation of dermal papilla cells [4] [%] | cell proliferation of germinal matrix cells [5] [%]
1 | Nc1cc(N2CCCCC2)nc(N)[n+]1[O-] [minoxidil 2%, minoxidil] | 46 | 47 | 233 | about 1.4 times | about 56 times | about 3.7 times | – | –
2 | Arg-Pro-Lys-Pro-Gln-Gln-Phe-Phe-Gly-Leu-Met-NH2 (RPKPQQFFGLM-NH2) [substance P, in phosphate buffered saline as comparison group] | – | – | – | – | – | – | 107 | ≤ 105
